From US20070249670A1, “Glycogen Phosphorylase Inhibitor Compounds and Pharmaceutical Compositions Thereof” (SMITHKLINE BEECHAM CORPORATION, priority 2004, published 2007)

Target: T1, human liver glycogen phosphorylase a (HLGPa) (Homo sapiens, UniProt P06737)
T1 construct: creating a full-length cDNA fused at the 5′ end to codons for methionine-glycine-alanine-histidine; 6xHis tag (leader Met-Gly-Ala-His6-Gly-Gly) (N); made in house; host or cells: E. coli (bacterial expression plasmid pTXK1007LTev)
T1 sequence (P06737 2-847 limits assumed): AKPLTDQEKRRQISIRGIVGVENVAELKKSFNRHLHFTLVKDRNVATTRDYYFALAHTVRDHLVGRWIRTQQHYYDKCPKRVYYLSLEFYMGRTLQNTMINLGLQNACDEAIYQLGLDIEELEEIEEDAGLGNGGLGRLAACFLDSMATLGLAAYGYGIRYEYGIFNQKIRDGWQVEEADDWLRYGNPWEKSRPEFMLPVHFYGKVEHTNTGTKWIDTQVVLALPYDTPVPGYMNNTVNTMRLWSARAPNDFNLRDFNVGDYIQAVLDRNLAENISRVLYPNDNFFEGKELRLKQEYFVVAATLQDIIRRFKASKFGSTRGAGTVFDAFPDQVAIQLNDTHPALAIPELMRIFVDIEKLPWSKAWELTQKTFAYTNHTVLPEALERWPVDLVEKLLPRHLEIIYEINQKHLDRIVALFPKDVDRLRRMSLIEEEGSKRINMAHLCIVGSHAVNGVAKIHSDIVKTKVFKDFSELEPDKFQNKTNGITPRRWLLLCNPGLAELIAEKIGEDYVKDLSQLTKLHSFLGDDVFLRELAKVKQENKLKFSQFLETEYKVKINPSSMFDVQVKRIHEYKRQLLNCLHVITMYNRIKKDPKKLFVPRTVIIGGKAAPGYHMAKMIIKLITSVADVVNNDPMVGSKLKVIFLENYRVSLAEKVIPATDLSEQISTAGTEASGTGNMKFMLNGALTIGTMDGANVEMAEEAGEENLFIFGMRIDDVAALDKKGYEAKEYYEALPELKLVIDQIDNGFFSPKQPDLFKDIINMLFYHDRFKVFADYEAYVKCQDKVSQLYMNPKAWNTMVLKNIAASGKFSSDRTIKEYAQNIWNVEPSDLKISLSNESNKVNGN
Assay: Human liver glycogen phosphorylase a enzymatic activity assay (coupled, fluorescent resorufin readout, with and without 10 mM glucose)
Format: biochemical
Conditions: human liver glycogen phosphorylase a enzymatic activity assay

SMILES	IC50
O=C(Nc1sc(-c2ccc(F)cc2)cc1C(=O)N[C@H](C(=O)O)C1CCCCC1)Nc1c(Cl)cccc1Cl [Example 419, (2S)-cyclohexyl({[2-({[(2,6-dichlorophenyl)amino]carbonyl}amino)-5-(4-fluorophenyl)-3-thienyl]carbonyl}amino)ethanoic acid]	600 nM
Cc1cc(F)ccc1-c1cc(C(=O)O)c(NC(=O)Nc2c(Cl)cccc2Cl)s1 [Example 420, 2-({[(2,6-dichlorophenyl)amino]carbonyl}amino)-5-(4-fluoro-2-methylphenyl)-3-thiophenecarboxylic acid]	5640 nM
Cc1cc(F)ccc1-c1cc(C(=O)N[C@H](C(=O)O)C2CCCCC2)c(NC(=O)Nc2c(Cl)cccc2Cl)s1 [Example 421, (2S)-cyclohexyl({[2-({[(2,6-dichlorophenyl)amino]carbonyl}amino)-5-(4-fluoro-2-methylphenyl)-3-thienyl]carbonyl}amino)ethanoic acid]	1390 nM
Cn1cc(-c2cc(C(=O)O)c(NC(=O)Nc3c(Cl)cccc3Cl)s2)cn1 [Example 422, 2-({[(2,6-dichlorophenyl)amino]carbonyl}amino)-5-(1-methyl-1H-pyrazol-4-yl)-3-thiophenecarboxylic acid]	6340 nM
Cn1cc(-c2cc(C(=O)N[C@H](C(=O)O)C3CCCCC3)c(NC(=O)Nc3c(Cl)cccc3Cl)s2)cn1 [Example 423, (2S)-cyclohexyl({[2-({[(2,6-dichlorophenyl)amino]carbonyl}amino)-5-(1-methyl-1H-pyrazol-4-yl)-3-thienyl]carbonyl}amino)ethanoic acid]	260 nM
COc1ccc(-c2cc(C(=O)O)c(NC(=O)Nc3c(C)cc(C)cc3C)s2)cc1 [Example 424, 5-[4-(methyloxy)phenyl]-2-({[(2,4,6-trimethylphenyl)amino]carbonyl}amino)-3-thiophenecarboxylic acid]	290 nM
COc1ccc(-c2cc(C(=O)N[C@H](C(=O)O)C3CCCCC3)c(NC(=O)Nc3c(C)cc(C)cc3C)s2)cc1 [Example 425, (2S)-cyclohexyl({[5-[4-(methyloxy)phenyl]-2-({[(2,4,6-trimethylphenyl)amino]carbonyl}amino)-3-thienyl]carbonyl}amino)ethanoic acid]	16 nM
COc1ccc(-c2cc(C(=O)O)c(NC(=O)Nc3c(Cl)cc(OC(F)(F)F)cc3Cl)s2)cc1 [Example 426, 2-{[({2,6-dichloro-4-[(trifluoromethyl)oxy]phenyl}amino)carbonyl]amino}-5-[4-(methyloxy)phenyl]-3-thiophenecarboxylic acid]	1310 nM
COc1ccc(-c2cc(C(=O)N[C@H](C(=O)O)C3CCCCC3)c(NC(=O)Nc3c(Cl)cc(OC(F)(F)F)cc3Cl)s2)cc1 [Example 427, (2S)-cyclohexyl[({2-{[({2,6-dichloro-4-[(trifluoromethyl)oxy]phenyl}amino)carbonyl]amino}-5-[4-(methyloxy)phenyl]-3-thienyl}carbonyl)amino]ethanoic acid]	27 nM
O=C(Nc1sc(-c2ccc(OC(F)(F)F)cc2)cc1C(=O)O)Nc1c(Cl)cc(OC(F)(F)F)cc1Cl [Example 428, 2-{[({2,6-dichloro-4-[(trifluoromethyl)oxy]phenyl}amino)carbonyl]amino}-5-{4-[(trifluoromethyl)oxy]phenyl}-3-thiophenecarboxylic acid]	1220 nM
O=C(Nc1sc(-c2ccc(OC(F)(F)F)cc2)cc1C(=O)N[C@H](C(=O)O)C1CCCCC1)Nc1c(Cl)cc(OC(F)(F)F)cc1Cl [Example 429, (2S)-cyclohexyl{[(2-{[({2,6-dichloro-4-[(trifluoromethyl)oxy]phenyl}amino)carbonyl]amino}-5-{4-[(trifluoromethyl)oxy]phenyl}-3-thienyl)carbonyl]amino}ethanoic acid]	96 nM
Cc1cc(C)c(NC(=O)Nc2sc(-c3ccc(OC(F)(F)F)cc3)cc2C(=O)O)c(C)c1 [Example 430, 5-{4-[(trifluoromethyl)oxy]phenyl}-2-({[(2,4,6-trimethylphenyl)amino]carbonyl}amino)-3-thiophenecarboxylic acid]	740 nM
Cc1cc(C)c(NC(=O)Nc2sc(-c3ccc(OC(F)(F)F)cc3)cc2C(=O)N[C@H](C(=O)O)C2CCCCC2)c(C)c1 [Example 431, (2S)-cyclohexyl({[5-{4-[(trifluoromethyl)oxy]phenyl}-2-({[(2,4,6-trimethylphenyl)amino]carbonyl}amino)-3-thienyl]carbonyl}amino)ethanoic acid]	330 nM
COc1ccc(-c2cc(NC(=O)Nc3c(Cl)cc(OC(F)(F)F)cc3Cl)c(C(=O)O)s2)cc1 [Example 432, 3-{[({2,6-dichloro-4-[(trifluoromethyl)oxy]phenyl}amino)carbonyl]amino}-5-[4-(methyloxy)phenyl]-2-thiophenecarboxylic acid]	2700 nM
COc1ccc(-c2cc(NC(=O)Nc3c(Cl)cc(OC(F)(F)F)cc3Cl)c(C(=O)N[C@H](C(=O)O)C3CCCCC3)s2)cc1 [Example 433, (2S)-cyclohexyl[({3-{[({2,6-dichloro-4-[(trifluoromethyl)oxy]phenyl}amino)carbonyl]amino}-5-[4-(methyloxy)phenyl]-2-thienyl}carbonyl)amino]ethanoic acid]	80 nM
O=C(Nc1cc(-c2ccc(OC(F)(F)F)cc2)sc1C(=O)O)Nc1c(Cl)cccc1Cl [Example 434, 3-({[(2,6-dichlorophenyl)amino]carbonyl}amino)-5-{4-[(trifluoromethyl)oxy]phenyl}-2-thiophenecarboxylic acid]	2120 nM
O=C(Nc1cc(-c2ccc(OC(F)(F)F)cc2)sc1C(=O)N[C@H](C(=O)O)C1CCCCC1)Nc1c(Cl)cccc1Cl [Example 435, (2S)-cyclohexyl{[(3-({[(2,6-dichlorophenyl)amino]carbonyl}amino)-5-{4-[(trifluoromethyl)oxy]phenyl}-2-thienyl)carbonyl]amino}ethanoic acid]	1630 nM
Cc1cc(C)c(NC(=O)Nc2cc(-c3ccc(OC(F)(F)F)cc3)sc2C(=O)O)c(C)c1 [Example 436, 5-{4-[(trifluoromethyl)oxy]phenyl}-3-({[(2,4,6-trimethylphenyl)amino]carbonyl}amino)-2-thiophenecarboxylic acid]	1570 nM
Cc1cc(C)c(NC(=O)Nc2cc(-c3ccc(OC(F)(F)F)cc3)sc2C(=O)N[C@H](C(=O)O)C2CCCCC2)c(C)c1 [Example 437, (2S)-cyclohexyl({[5-{4-[(trifluoromethyl)oxy]phenyl}-3-({[(2,4,6-trimethylphenyl)amino]carbonyl}amino)-2-thienyl]carbonyl}amino)ethanoic acid]	220 nM
COc1ccc(-c2cc(NC(=O)Nc3c(C)cc(C)cc3C)c(C(=O)O)s2)cc1 [Example 438, 5-[4-(methyloxy)phenyl]-3-({[(2,4,6-trimethylphenyl)amino]carbonyl}amino)-2-thiophenecarboxylic acid]	330 nM
COc1ccc(-c2cc(NC(=O)Nc3c(C)cc(C)cc3C)c(C(=O)N[C@H](C(=O)O)C3CCCCC3)s2)cc1 [Example 439, (2S)-cyclohexyl({[5-[4-(methyloxy)phenyl]-3-({[(2,4,6-trimethylphenyl)amino]carbonyl}amino)-2-thienyl]carbonyl}amino)ethanoic acid]	12 nM
COc1ccc(-c2cc(NC(=O)Nc3c(C)cc(C)cc3C)c(C(=O)N[C@H](C(=O)O)C(C)C)s2)cc1 [Example 440]	100 nM
COc1ccc(-c2cc(NC(=O)Nc3c(C)cc(C)cc3C)c(C(=O)N[C@@H](C(=O)O)C(C)C)s2)cc1 [Example 441, N-{[5-[4-(methyloxy)phenyl]-3-({[(2,4,6-trimethylphenyl)amino]carbonyl}amino)-2-thienyl]carbonyl}-D-valine]	2110 nM
CC[C@H](C)[C@H](NC(=O)c1sc(-c2ccc(OC)cc2)cc1NC(=O)Nc1c(C)cc(C)cc1C)C(=O)O [Example 442, N-{[5-[4-(methyloxy)phenyl]-3-({[(2,4,6-trimethylphenyl)amino]carbonyl}amino)-2-thienyl]carbonyl}-L-isoleucine]	51 nM
CCCC[C@H](NC(=O)c1sc(-c2ccc(OC)cc2)cc1NC(=O)Nc1c(C)cc(C)cc1C)C(=O)O [Example 443, N-{[5-[4-(methyloxy)phenyl]-3-({[(2,4,6-trimethylphenyl)amino]carbonyl}amino)-2-thienyl]carbonyl}-L-norleucine]	43 nM
COc1ccc(-c2cc(NC(=O)Nc3c(C)cc(C)cc3C)c(C(=O)N[C@@H](CC3CCCCC3)C(=O)O)s2)cc1 [Example 444, 3-cyclohexyl-N-{[5-[4-(methyloxy)phenyl]-3-({[(2,4,6-trimethylphenyl)amino]carbonyl}amino)-2-thienyl]carbonyl}-L-alanine]	110 nM
